# Source: patent publication US9809574B2, “Isoindoline or isoquinoline compounds, a process for their preparation and pharmaceutical compositions containing them” (LES LABORATOIRES SERVIER, priority 2013, dated 2017)
# Columns and labels:
# Bcl-2 protein = Bcl-2 protein (histag-Bcl-2, UniProtKB P10415) (Homo sapiens (Human), UniProt P10415); assay: Inhibition of Bcl-2 by the fluorescence polarisation technique; assay type: binding; conditions: fluorescence polarisation test; incubation for 2 hours; read-out: IC50 (nM) Bcl-2 FP
# Description: For partial inhibitors, the percentage fluorescence polarisation inhibition for a given concentration of the test compound is indicated.
# [1] = tested on: RS4; 11 leukaemia cell line; assay: In vitro cytotoxicity, Microculture Tetrazolium Assay (MTT); assay type: cell-based; conditions: Homo sapiens, 11 cells exposed for 48 hours
# Method: The cytotoxicity studies were carried out on the RS4; 11 leukaemia cell line and on H146 small Cell Lung Carcinoma cell line. The cells are distributed onto microplates and exposed to the test compounds for 48 hours. The cell viability is then quantified by a colorimetric assay, the Microculture Tetrazolium Assay (Cancer Res., 1987, 47, 939-942).
# Sequence of Bcl-2 protein (P10415 whole entry): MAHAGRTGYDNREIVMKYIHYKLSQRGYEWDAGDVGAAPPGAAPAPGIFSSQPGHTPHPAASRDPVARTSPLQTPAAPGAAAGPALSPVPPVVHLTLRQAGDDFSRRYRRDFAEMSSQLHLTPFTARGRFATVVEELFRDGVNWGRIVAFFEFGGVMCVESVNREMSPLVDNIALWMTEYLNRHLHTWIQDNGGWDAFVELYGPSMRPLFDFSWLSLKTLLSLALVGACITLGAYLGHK
Structure (SMILES),IC50 (Bcl-2 protein),IC50 [1]
"COc1cccc(/C=C/C(=O)N2CCc3cc(-c4cc(C(=O)N(C)c5ccc(O)cc5)c(C)n4C)c(C(=O)N4Cc5ccccc5C[C@H]4CN4CCOCC4)cc3C2)c1 [Example 136, N-(4-Hydroxyphenyl)-5-{2-[(2E)-3-(3-methoxyphenyl)prop-2-enoyl]-7-[(3S)-3-(morpholin-4-ylmethyl)-1,2,3,4-tetrahydroisoquinoline-2-carbonyl]-1,2,3,4-tetrahydroisoquinolin-6-yl}-N,1,2-trimethyl-1H-pyrrole-3-carboxamide]",6.7 nM,24 nM
"Cc1c(C(=O)N(C)c2ccc(O)cc2)cc(-c2cc3c(cc2C(=O)N2Cc4ccccc4C[C@H]2CN2CCOCC2)CN(C(=O)/C=C/c2ccc(Cl)c(Cl)c2)CC3)n1C [Example 137, 5-{2-[(2E)-3-(3,4-dichlorophenyl)prop-2-enoyl]-7-[(3S)-3-(morpholin-4-ylmethyl)-1,2,3,4-tetrahydroisoquinoline-2-carbonyl]-1,2,3,4-tetrahydroisoquinolin-6-yl}-N-(4-hydroxyphenyl)-N,1,2-trimethyl-1H-pyrrole-3-carboxamide]",9.4 nM,47 nM
"C[C@@H]1Cc2ccccc2CN1C(=O)c1cc2c(cc1-c1cc(C(=O)N(C)c3ccc(O)cc3)c3n1CCCC3)CCN(C(=O)CCc1ccc(NCCN(C)C)cc1)C2 [Example 138, 3-{2-[3-(4-{[2-(Dimethylamino)ethyl]amino}phenyl)propanoyl]-7-[(3R)-3-methyl-1,2,3,4-tetrahydroisoquinoline-2-carbonyl]-1,2,3,4-tetrahydroisoquinolin-6-yl}-N-(4-hydroxyphenyl)-N-methyl-5,6,7,8-tetrahydroindolizine-1-carboxamide]",12 nM,114 nM
"Cc1ccc(OC(=O)N2CCc3cc(-c4cc(C(=O)N(C)c5ccc(O)cc5)c(C)n4C)c(C(=O)N4Cc5ccccc5C[C@H]4CN4CCOCC4)cc3C2)cc1 [Example 139, 4-Methylphenyl 6-{4-[(4-hydroxyphenyl)(methyl)carbamoyl]-1,5-dimethyl-1H-pyrrol-2-yl}-7-[(3S)-3-(morpholin-4-ylmethyl)-1,2,3,4-tetrahydroisoquinoline-2-carbonyl]-1,2,3,4-tetrahydroisoquinoline-2-carboxylate]",5.1 nM,0.84 nM
"Cc1c(C(=O)N(C)c2ccc(O)cc2)cc(-c2cc3c(cc2C(=O)N2Cc4ccccc4C[C@H]2CN2CCOCC2)CN(C(=O)Oc2ccc(Cl)cc2)CC3)n1C [Example 140, 4-Chlorophenyl 6-{4-[(4-hydroxyphenyl)(methyl)carbamoyl]-1,5-dimethyl-1H-pyrrol-2-yl}-7-[(3S)-3-(morpholin-4-ylmethyl)-1,2,3,4-tetrahydroisoquinoline-2-carbonyl]-1,2,3,4-tetrahydroisoquinoline-2-carboxylate]",6.6 nM,4 nM
"CN(C(=O)c1cc(-c2cc3c(cc2C(=O)N2Cc4ccccc4C[C@H]2CN2CCOCC2)CN(C(=O)Oc2ccc(C(N)=O)cc2)CC3)n2c1CCCC2)c1ccc(O)cc1 [Example 141, 4-Carbamoylphenyl 6-{1-[(4-hydroxyphenyl)(methyl)carbamoyl]-5,6,7,8-tetrahydroindolizin-3-yl}-7-[(3S)-3-(morpholin-4-ylmethyl)-1,2,3,4-tetrahydroisoquinoline-2-carbonyl]-1,2,3,4-tetrahydroisoquinoline-2-carboxylate]",5.9 nM,82 nM
"CN(C)C(=O)c1ccc(OC(=O)N2CCc3cc(-c4cc(C(=O)N(C)c5ccc(O)cc5)c5n4CCCC5)c(C(=O)N4Cc5ccccc5C[C@H]4CN4CCOCC4)cc3C2)cc1 [Example 142, 4-(Dimethylcarbamoyl)phenyl 6-{1-[(4-hydroxyphenyl)(methyl)carbamoyl]-5,6,7,8-tetrahydroindolizin-3-yl}-7-[(3S)-3-(morpholin-4-ylmethyl)-1,2,3,4-tetrahydroisoquinoline-2-carbonyl]-1,2,3,4-tetrahydroisoquinoline-2-carboxylate]",5.5 nM,53 nM
"CN(C(=O)c1cc(-c2cc3c(cc2C(=O)N2Cc4ccccc4C[C@H]2CN2CCOCC2)CN(C(=O)Oc2ccc(-n4ccnc4)cc2)CC3)n2c1CCCC2)c1ccc(O)cc1 [Example 143, 4-(1H-imidazol-1-yl)phenyl 6-{1-[(4-hydroxyphenyl)(methyl)carbamoyl]-5,6,7,8-tetrahydroindolizin-3-yl}-7-[(3S)-3-(morpholin-4-ylmethyl)-1,2,3,4-tetrahydroisoquinoline-2-carbonyl]-1,2,3,4-tetrahydroisoquinoline-2-carboxylate]",5.5 nM,9.3 nM
"C[C@@H]1Cc2ccccc2CN1C(=O)c1cc2c(cc1-c1cc(C(=O)N(C)c3ccc(O)cc3)c3n1CCCC3)CCN(C(=O)Cc1ccc(CN(C)C)cc1)C2 [Example 144, 3-[2-(2-{4-[(Dimethylamino)methyl]phenyl}acetyl)-7-[(3R)-3-methyl-1,2,3,4-tetrahydroisoquinoline-2-carbonyl]-1,2,3,4-tetrahydroisoquinolin-6-yl]-N-(4-hydroxyphenyl)-N-methyl-5,6,7,8-tetrahydroindolizine-1-carboxamide]",4.8 nM,82 nM
"Cc1c(C(=O)N(C)c2ccc(O)cc2)cc(-c2cc3c(cc2C(=O)N2Cc4ccccc4C[C@H]2C)CN(C(=O)Cc2ccc(C#N)cc2)CC3)n1C [Example 145, 5-{2-[2-(4-Cyanophenyl)acetyl]-7-[(3R)-3-methyl-1,2,3,4-tetrahydroisoquinoline-2-carbonyl]-1,2,3,4-tetrahydroisoquinolin-6-yl}-N-(4-hydroxyphenyl)-N,1,2-trimethyl-1H-pyrrole-3-carboxamide]",4.2 nM,5.5 nM
"Cc1c(C(=O)N(C)c2ccc(O)cc2)cc(-c2cc3c(cc2C(=O)N2Cc4ccccc4C[C@H]2CN2CCOCC2)CN(C(=O)Oc2ccc(C#N)cc2)CC3)n1C [Example 146, 4-Cyanophenyl 6-{4-[(4-hydroxyphenyl)(methyl)carbamoyl]-1,5-dimethyl-1H-pyrrol-2-yl}-7-[(3S)-3-(morpholin-4-ylmethyl)-1,2,3,4-tetrahydroisoquinoline-2-carbonyl]-1,2,3,4-tetrahydroisoquinoline-2-carboxylate]",2.8 nM,6 nM
"Cc1c(C(=O)N(C)c2ccc(O)cc2)cc(-c2cc3c(cc2C(=O)N2Cc4ccccc4C[C@H]2C)CN(C(=O)Oc2ccc(C#N)cc2)CC3)n1C [Example 147, 4-Cyanophenyl 6-{4-[(4-hydroxyphenyl)(methyl)carbamoyl]-1,5-dimethyl-1H-pyrrol-2-yl}-7-[(3R)-3-methyl-1,2,3,4-tetrahydroisoquinoline-2-carbonyl]-1,2,3,4-tetrahydroisoquinoline-2-carboxylate]",3.2 nM,2.3 nM
"COc1cc(C#N)ccc1OC(=O)N1CCc2cc(-c3cc(C(=O)N(C)c4ccc(O)cc4)c4n3CCCC4)c(C(=O)N3Cc4ccccc4C[C@H]3CN3CCOCC3)cc2C1 [Example 148, 4-Cyano-2-methoxyphenyl 6-{1-[(4-hydroxyphenyl)(methyl)carbamoyl]-5,6,7,8-tetrahydroindolizin-3-yl}-7-[(3S)-3-(morpholin-4-ylmethyl)-1,2,3,4-tetrahydroisoquinoline-2-carbonyl]-1,2,3,4-tetrahydroisoquinoline-2-carboxylate]",3 nM,10 nM
"Cc1c(C(=O)N(C)c2ccccc2)cc(-c2cc3c(cc2C(=O)N2Cc4ccccc4C[C@H]2C)CN(C(=O)Cc2ccc(NCCN(C)C)cc2)CC3)n1C [Example 149, 5-{2-[2-(4-{[2-(Dimethylamino)ethyl]amino}phenyl)acetyl]-7-[(3R)-3-methyl-1,2,3,4-tetrahydroisoquinoline-2-carbonyl]-1,2,3,4-tetrahydroisoquinolin-6-yl}-N,1,2-trimethyl-N-phenyl-1H-pyrrole-3-carboxamide]",11 nM,124 nM
"Cc1c(C(=O)N(C)c2ccccc2)cc(-c2cc3c(cc2C(=O)N2Cc4ccccc4C[C@H]2C)CN(C(=O)Cc2ccc(C#N)cc2)CC3)n1C [Example 150, 5-{2-[2-(4-Cyanophenyl)acetyl]-7-[(3R)-3-methyl-1,2,3,4-tetrahydroisoquinoline-2-carbonyl]-1,2,3,4-tetrahydroisoquinolin-6-yl}-N,1,2-trimethyl-N-phenyl-1H-pyrrole-3-carboxamide]",4.3 nM,16 nM
"Cc1c(C(=O)N(C)c2ccccc2)cc(-c2cc3c(cc2C(=O)N2Cc4ccccc4C[C@H]2CN2CCOCC2)CN(C(=O)Cc2ccc(C#N)cc2)CC3)n1C [Example 151, 5-{2-[2-(4-Cyanophenyl)acetyl]-7-[(3S)-3-(morpholin-4-ylmethyl)-1,2,3,4-tetrahydroisoquinoline-2-carbonyl]-1,2,3,4-tetrahydroisoquinolin-6-yl}-N,1,2-trimethyl-N-phenyl-1H-pyrrole-3-carboxamide]",5.3 nM,19 nM
"Cc1c(C(=O)N(C)c2ccccc2)cc(-c2cc3c(cc2C(=O)N2Cc4ccccc4C[C@H]2CN2CCOCC2)CN(C(=O)Oc2ccc(C#N)cc2)CC3)n1C [Example 152, 4-Cyanophenyl 6-{1,5-dimethyl-4-[methyl(phenyl)carbamoyl]-1H-pyrrol-2-yl}-7-[(3S)-3-(morpholin-4-ylmethyl)-1,2,3,4-tetrahydroisoquinoline-2-carbonyl]-1,2,3,4-tetrahydroisoquinoline-2-carboxylate]",6.5 nM,29 nM
"C[C@@H]1Cc2ccccc2CN1C(=O)c1cc2c(cc1-c1cc(C(=O)N(C)c3ccc(O)cc3)c3n1CCCC3)CCN(C(=O)Oc1ccc(NCCN(C)C)cc1)C2 [Example 153, 4-{[2-(Dimethylamino)ethyl]amino}phenyl 6-{1-[(4-hydroxyphenyl)(methyl)carbamoyl]-5,6,7,8-tetrahydroindolizin-3-yl}-7-[(3R)-3-methyl-1,2,3,4-tetrahydroisoquinoline-2-carbonyl]-1,2,3,4-tetrahydroisoquinoline-2-carboxylate]",4.2 nM,3.6 nM
